Results on two compounds are retold here after patent US20050054589A1, “Method for treating diseases using HSP90-inhibiting agents in combination with antibiotics” (Kosan Biosciences, Inc., priority 2003, published 2005).

The conditions of series [1]: clinical trials; twice-weekly regimen; cited from earlier work.
Series [2] concerns SKBr cells (human breast cancer cells). Description: Cell viability (MTS) drug combination assay, combination index, SKBr-3 cells. Format: cell-based. The note with it: constant ratio of IC50s, CI<1 synergism. The protocol: (§1) Human colon adenocarcinoma cell line, DLD-1, and human breast adenocarcinoma cell line, SKBr-3, were obtained from American Type Culture Collection (manassas, VA). DLD-1 cells were maintained in RPMI 1640 medium supplemented with 10% fetal bovine serum, and SKBr-3 cells were cultured in McCoy's 5a medium supplemented with 10% fetal bovine serum. 17-DMAG and 17-AAG were obtained using published procedures. Other cytotoxic agents were purchased commercially from suppliers such as Sigma Chemical Co. (St. Louis, Mo.) and Sequoia Research Products (Oxford, UK).
(§2) Cells were seeded in duplicate in 96-well microtiter plates at a density of 5,000 cells per well and allowed to attach overnight. […] Cell viability was determined using the MTS assay (Promega). For the drug combination assay, cells were seeded in duplicate in 96-well plates (5,000 cells/well). […] Cell viability was determined by the MTS assay.
(§3) Synergism, additivity or antagonism was determined by median effect analysis using the combination index (CI) calculated using Calcusyn (Biosoft, Cambridge, UK). […] The quantities [Dx]1 and [Dx]2 represent the concentrations of the first and second drug, respectively, that when used alone provide a response of x % in the assay. […] The “enhancing” effect of two drugs can also be determined.

Series [3] relates to DLD-1 cells (human colorectal cancer cells). The following applies: constant ratio of IC50s, CI<1 synergism, CI=1 additivity, CI>1 antagonism. The protocol:
as §1, §2, §3

Setting [4] is: 17-AAG 24 h before antibiotic, then 48 h.
Setting [5] is: antibiotic alone 24 h, then 17-AAG for 48 h.

Consider `C=CCNC1=C2C[C@@H](C)C[C@H](OC)[C@H](O)[C@@H](C)/C=C(\C)[C@H](OC(N)=O)[C@@H](OC)/C=C\C=C(/C)C(=O)NC(=CC1=O)C2=O` [17-AAG, 17-(allylamino)-17-desmethoxygeldanamycin], for which, in series [1], the MTD entry is given as “about 220 mg/m2”.
In the case of `COc1cccc2c1C(=O)c1c(O)c3c(c(O)c1C2=O)C[C@@](O)(C(=O)CO)C[C@@H]3O[C@H]1C[C@H](N)[C@H](O)[C@H](C)O1` [Doxorubicin, doxorubicin], the entries for the “CI value, combination with 17-AAG, 17-AAG Pre-Administration” value in series [2] (setting [4]) and in series [3] (setting [4]) were 0.81 ± 0.05 and 0.58 ± 0.15, respectively. The “CI value, combination with 17-AAG, 17-AAG Post-Administration” value in series [2] (setting [5]) is on record as 0.45 ± 0.12; in series [3] (setting [5]), 0.82 ± 0.09.
